According to patent US5958886A, “Carnitine-containing peptides and a method for using the same” (Sigma-Tau Pharmaceuticals, Inc., priority 1998, dated 1999):
Non-standard residues stand in square brackets, D forms with d. Residues, ends and D or L forms follow the SMILES beside them. Sar = CNCC(=O)O

How the values were obtained:
peptide carrier = molecular target: T1, peptide carrier (Homo sapiens, UniProt P46059); test: Inhibition of glycyl-sarcosine transport via the peptide carrier in Caco-2 cells; format: cell-based
T1 construct: endogenous in cells; host or cells: Caco-2 cells
T1 sequence (P46059 1-708): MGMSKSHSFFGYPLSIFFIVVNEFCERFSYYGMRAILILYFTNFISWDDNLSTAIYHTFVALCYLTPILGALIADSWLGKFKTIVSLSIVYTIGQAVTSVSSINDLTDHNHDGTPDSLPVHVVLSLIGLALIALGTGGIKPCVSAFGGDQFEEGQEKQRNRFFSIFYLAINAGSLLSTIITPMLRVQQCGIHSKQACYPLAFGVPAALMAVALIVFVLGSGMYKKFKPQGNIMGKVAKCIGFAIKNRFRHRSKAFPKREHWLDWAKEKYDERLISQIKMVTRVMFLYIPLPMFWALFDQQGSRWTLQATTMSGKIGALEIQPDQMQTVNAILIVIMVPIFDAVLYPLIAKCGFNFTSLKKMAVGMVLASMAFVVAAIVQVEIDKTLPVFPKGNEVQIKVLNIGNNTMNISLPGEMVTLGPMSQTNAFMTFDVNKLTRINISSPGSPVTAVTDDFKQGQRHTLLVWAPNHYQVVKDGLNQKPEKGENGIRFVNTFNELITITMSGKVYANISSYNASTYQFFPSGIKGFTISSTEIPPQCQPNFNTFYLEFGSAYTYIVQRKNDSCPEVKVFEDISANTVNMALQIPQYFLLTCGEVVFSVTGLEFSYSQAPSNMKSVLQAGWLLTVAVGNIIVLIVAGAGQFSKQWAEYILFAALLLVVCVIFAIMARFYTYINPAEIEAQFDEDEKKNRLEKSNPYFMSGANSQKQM
From the text: Carnityl-alanyl-alanine (CAA) is a peptide derivative of carnitine. In this experiment, the ability of CAA to compete with glycyl-sarcosine for transport via the peptide carrier was studied in Caco-2 cells. These cells are a good model system for the human intestine and they express the peptide carrier as does the human intestine. Glycyl-sarcosine is a standard substrate for the peptide carrier. If CAA is taken up by the peptide carrier it is expected to compete with glycyl-sarcosine for transport via the carrier and thus inhibit the transport.

[1] = molecular target: T2, peptide carrier from human intestine (Homo sapiens, UniProt P46059); test: Charge transfer in Xenopus oocytes expressing the peptide carrier from human intestine (electrophysiological approach); format: cell-based; details: Xenopus oocytes expressing human intestinal peptide carrier; exposure to 10 mM
T2 construct: expressed in transfected cells; host or cells: Xenopus oocytes injected with peptide transporter mRNA
T2 sequence (P46059 1-708): T1 sequence (P46059 1-708)
From the text: In this experiment, Xenopus (frog) oocytes which were made to express the peptide carrier from human intestine by injection of its peptide transporter mRNA were used to study the transport of CAA via the carrier. The peptide carrier uses the energy from a proton gradient and peptide transport via the carrier leads to a transfer of positive charge into the oocytes. This charge transfer can be monitored using the electrophysiological approach. If CAA is transported via the peptide carrier, exposure of the oocytes to CAA is expected to result in the transfer of positive charge.

inhibition of glycyl-sarcosine transport (in words) (peptide carrier; Caco-2 cells, under similar conditions)	Compound	charge transfer into oocytes (in words) [1]	inhibition of the transport of glycylsarcosine (peptide carrier; Caco-2 cells, at 10 mM)	inhibition of the transport of glycylsarcosine (peptide carrier; Caco-2 cells, at 20 mM)	affinity for the intestinal peptide carrier (peptide carrier; concluded from the Caco-2 and oocyte experiments)
does not inhibit	C[N+](C)(C)CC(O)CC(=O)[O-] (stereo not drawn) [Free carnitine, Carnitine]	–	–	–	–
–	CN(CC(=O)O)C(=O)CN [glycyl-sarcosine, Glycyl-sarcosine, reference compound] (H-Gly-[Sar]-OH)	charge transfer found	–	–	–
–	Carnityl-alanyl-alanine [CAA]	induced charge transfer	35%	80%	millimolar range
